Several values for one entry are separate records, joined by “and”; a condition that tells them apart may be missing. Equal values may be shown once. Read-outs that look alike come from different tables or passages of the source.
Tests used:
[1] = molecular target: T1, human CB1 (hCB1) (Homo sapiens, UniProt P21554); assay: 35S GTPγS binding assay, hCB1 agonist; type: biochemical; conditions: GTPγS agonist, HEK-293 membranes; read-out: hCB1 EC50 (GTPyS ag)
T1 construct: (cDNA clone) CNR01L000
From the text: cDNA expression clones for human CB1 (hCB1, Genbank Accession No. AY225225) and human CB2 (hCB2, Genbank Accession No. AY242132) expressed in vector pcDNA3.1+ were purchased from UMR cDNA Resource Center, Rolla, Mo. (Clone ID CNR01L000 for hCB1; CNR0200000 for hCB2).
Stable, HEK-293-derived cell lines that recombinantly express hCBI or hCB2 were established. In brief, the clone hCB1 (CNR IL) or hCB2 (CNR2) was transfected into human embryonic kidney cells (HEK-293) using Lipofectamine 2000 (Gibco, Cat#11668-019) according to the manufacturer's protocol. Transfected clones were isolated by single colony purification and clones were screened for receptor expression using a whole cell, ^3H—CP 55,940 radioligand binding assay. HEK-293 stable cells were maintained in Dulbecco's modified Eagles medium (DMEM) containing 10% fetal bovine serum, 2 mM L-glutamine and 0.5 mg/mL G-418.
Membranes were isolated from transfected cells as follows. Monolayers of cultured cells were washed twice with phosphate-buffered saline (PBS). Cells were scraped into 20 mM HEPES, pH 7.4, 10 mM EDTA containing complete cocktail protease inhibitors (Roche, Catalog #11 697 498 001) and were homogenized by an electric-powered mechanical probe homogenizer (Omni GLH; probe G7-195S) for 40 seconds at 7000 rpm. Homogenates were centrifuged 10 minutes at 1000×g at 4° C. The supernatant was collected and was centrifuged for 1 hour at 40,000×g. The supernatant was then decanted and the resulting pellet was re-suspended in 20 mM HEPES, pH 7.4, 5 mM MgCl2, 1 mM EDTA, 10% sucrose with complete cocktail protease inhibitors. Protein concentration of membrane suspensions were measured by Bradford Protein Assay using bovine serum albumin as the standard (BioRad catalog #500-0006). Protein concentrations of membrane suspensions were adjusted with the final buffer in the range of 5 to 10 mg/mL and were stored at −80° C. until further use.
Functional assays which monitor G-protein coupled receptor or downstream cellular responses can be used to characterize potential CB1 receptor and/or CB2 receptor agonist or antagonist activities. Direct activation (or inhibition of activation) can be monitored using a GTPγS assay (membrane-based assay) or cAMP assay (whole cell-based assay).
^35S GTPγS binding assays were performed by incubating recombinant cell membranes prepared above (5 μg) in the presence of scintillation proximity assay beads (SPA beads, Catalog #RPNQ0252 GE Healthcare, Buckinghamshire, England) in GTPγS binding buffer [50 mM HEPES (pH 7.4), 100 mM NaCl, 5 mM MgCl2, 0.001% saponin (Sigma catalog #S4521)] supplemented with 20 uM GDP (Sigma catalog #G7127) in the presence or absence of test compound. The reaction was carried out in 96-well microplates with 0.1 nM [^35S]GTPγS (specific activity=1250 Ci/mmol; Perkin Elmer catalog #NEG030X250UC) in a final volume of 100 uL. After a 90 min room temperature incubation, the reaction was analyzed using a scintillation counter (Perkin Elmer Microbeta instrument). Binding data were analyzed using GraphPad Prism.

[2] = molecular target: T2, recombinant human cannabinoid receptor CB1 (Homo sapiens, UniProt P21554); assay: Cannabinoid receptor radioligand binding assay, [3H]-CP 55,940 displacement, hCB1
T2 construct: (cDNA clone) CNR01L000
T2 sequence (P21554 whole entry): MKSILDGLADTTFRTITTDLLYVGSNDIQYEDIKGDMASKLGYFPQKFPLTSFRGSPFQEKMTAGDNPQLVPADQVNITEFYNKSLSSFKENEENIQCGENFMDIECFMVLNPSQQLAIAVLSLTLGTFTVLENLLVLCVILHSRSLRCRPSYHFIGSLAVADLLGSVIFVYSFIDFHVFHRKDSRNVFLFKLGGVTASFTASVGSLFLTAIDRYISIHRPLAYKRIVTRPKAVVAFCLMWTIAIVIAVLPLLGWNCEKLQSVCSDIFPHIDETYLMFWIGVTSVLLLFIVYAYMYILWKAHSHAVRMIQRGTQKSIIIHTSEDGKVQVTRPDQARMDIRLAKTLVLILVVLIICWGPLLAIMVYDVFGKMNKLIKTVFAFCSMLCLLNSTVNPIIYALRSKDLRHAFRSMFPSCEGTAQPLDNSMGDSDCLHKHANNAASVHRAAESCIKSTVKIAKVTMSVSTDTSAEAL
How it was run: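 Displacement of 0.5 nM [3H]-CP 55,940 (1 μM unlabeled CP 55,940 for nonspecific) measured by filtration and scintillation counting. Binding ran 90 min at room temperature in pH 7.5 Tris buffer with 0.1% fatty-acid-free BSA, using recombinant hCB1 HEK-293 membranes at 2-10 μg protein.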

[3] = molecular target: T3, human CB2 (hCB2) (Homo sapiens, UniProt P34972); assay: 35S GTPγS binding assay, hCB2 agonist; type: biochemical
T3 construct: (cDNA clone) CNR0200000
T3 sequence (P34972 whole entry): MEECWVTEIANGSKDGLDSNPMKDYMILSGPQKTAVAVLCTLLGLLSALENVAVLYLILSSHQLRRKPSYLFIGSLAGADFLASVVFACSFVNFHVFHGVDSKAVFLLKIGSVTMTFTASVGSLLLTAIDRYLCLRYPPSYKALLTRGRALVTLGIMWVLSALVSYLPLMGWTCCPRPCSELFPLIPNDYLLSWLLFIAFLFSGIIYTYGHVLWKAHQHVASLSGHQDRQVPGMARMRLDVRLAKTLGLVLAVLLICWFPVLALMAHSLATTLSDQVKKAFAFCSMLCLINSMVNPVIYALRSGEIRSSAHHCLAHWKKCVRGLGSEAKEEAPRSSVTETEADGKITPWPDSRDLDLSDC
How it was run: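 Agonist-stimulated [35S]GTPγS (0.1 nM) binding measured by scintillation proximity after 90 min at room temperature. Reaction buffer: 50 mM HEPES pH 7.4, 100 mM NaCl, 5 mM MgCl2, 0.001% saponin plus 20 uM GDP. Membranes (5 μg) came from transfected cells expressing hCB2 cDNA (pcDNA3.1+ vector).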

[4] = molecular target: T4, human CB2 receptors (Homo sapiens, UniProt P34972); assay: cAMP assay in HEK-293 cells, hCB2 agonist; type: cell-based
T4 construct: (cDNA clone) CNR0200000
T4 sequence (P34972 whole entry): as above
How it was run: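 Stable hCB2 HEK-293 cells in HBSS/10 mM HEPES/0.1% fatty-acid-free BSA incubated 30 min at 37° C with compound; forskolin 90 uM in 3× compound mix.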

[5] = molecular target: T5, human CB1 receptors (Homo sapiens, UniProt P21554); assay: cAMP assay in HEK-293 cells, hCB1 agonist; type: cell-based; conditions: inhibition of forskolin-stimulated cAMP, HEK-293 cells
T5 construct: (cDNA clone) CNR01L000
T5 sequence (P21554 whole entry): as the sequence (P21554 whole entry) above
How it was run: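 Agonist EC50 taken as concentration giving half inhibition of forskolin-driven cAMP, normalized to forskolin maximum, from sigmoidal curves. Whole HEK-293 cells stably expressing hCB1, in HEPES/BSA-containing HBSS, exposed 30 min at 37° C. to compound with forskolin (90 uM in 3× dilution); cAMP read after lysis.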

[6] = molecular target: T6, recombinant human cannabinoid receptor CB2 (Homo sapiens, UniProt P34972); assay: Cannabinoid receptor radioligand binding assay, [3H]-CP 55,940 displacement, hCB2
T6 construct: (cDNA clone) CNR0200000
T6 sequence (P34972 whole entry): as the sequence (P34972 whole entry) above
How it was run: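 Receptor source: membrane pellet (40,000×g) from transfected cells, stored in HEPES pH 7.4/MgCl2/EDTA/sucrose buffer.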

[7] = tested on: PBQ-induced writhing in the mouse; assay: Phenylbenzoquinone-induced (PBQ) writhing model
[8] = tested on: CFA induced inflammatory pain in the rat; assay: Complete Freund's Adjuvant (CFA) induced inflammatory pain model; type: in vivo
Method: In this rat model of inflammatory pain, 100 uL of CFA diluted 1:1 with phosphate buffered saline was injected into the subplantar region of the right hind paw on Day 1. On day 3, test compounds were administered orally and rats were assessed for their reaction to a mechanical stimuli applied via an Analgesy® meter. Injection of CFA increased the rats' reactivity to painful stimuli and this was reflected in a decrease in the amount of pressure they could tolerate prior to withdrawing their paw from the apparatus (hyperalgesia). An anti-hyperalgesic activity of the test compound was denoted by an increase in the amount of pressure they can tolerate prior to withdrawing their paw from the apparatus. The mean±SEM for each treatment group was determined and a Dunnett test was applied for comparison between vehicle and treated groups. Differences were considered significant at P<0.05. (see Bertorelli et al. 1999 Brit Journ Pharmacol 128:1252).

[9] = GTPγS agonist, HEK-293 membranes, read-out: hCB2 EC50 (GTPyS ag)

T1 sequence (P21554 whole entry): as the sequence (P21554 whole entry) above

COc1ccc(C(=O)c2cc3cc(C)n(CCN4CCC(F)(F)CC4)c3s2)cn1 [Compound 152, (6-(2-(4,4-difluoropiperidin-1-yl)ethyl)-5-methyl-6H-thieno[2,3-b]pyrrol-2-yl)(6-methoxypyridin-3-yl)methanone]
EC50 [1]: 1000 to 10000 nM
IC50 [2]: < 100 nM
EC50 [3, 9]: < 100 nM
EC50 ([4]; inhibition of forskolin-stimulated cAMP, HEK-293 cells, read-out: hCB2 EC50 (cAMP ag)): < 100 nM

COc1ccc(C(=O)c2cc3cc(C)n(CCCNS(=O)(=O)C(F)(F)F)c3s2)cc1 [Compound 154, 1,1,1-trifluoro-N-(3-(2-(4-methoxybenzoyl)-5-methyl-6H-thieno[2,3-b]pyrrol-6-yl)propyl)methanesulfonamide]
EC50 [1]: > 10000 nM
IC50 [2]: 158 nM
EC50 [3]: 1000 to 10000 nM
EC50 [4]: 100 to 1000 nM

COc1ccc(C(=O)c2cc3cc(C)n(CCN4CC5CC4CO5)c3s2)cn1 (centres unmarked) [Compound 169, (6-(2-(2-oxa-5-azabicyclo[2.2.1]heptan-5-yl)ethyl)-5-methyl-6H-thieno[2,3-b]pyrrol-2-yl)(6-methoxypyridin-3-yl)methanone]
EC50 [1]: > 10000 nM
hCB1 EC50 (cAMP ag, nM) [5]: NS (NS means “Not Significant,” which means less than 30% agonist activity when compared to the positive control.)
IC50 [2]: 100 to 1000 nM
EC50 [3, 9]: 1000 to 10000 nM

COc1ccc(C(=O)c2cc3cc(C)n(CC4CCCCO4)c3s2)cn1 (centres unmarked) [Compound 173, (6-methoxypyridin-3-yl)(5-methyl-6-((tetrahydro-2H-pyran-2-yl)methyl)-6H-thieno[2,3-b]pyrrol-2-yl)methanone]
EC50 [1]: 1000 to 10000 nM
IC50 [2]: < 100 nM
EC50 [3]: 100 to 1000 nM
EC50 [4]: < 100 nM

COc1ccc(C(=O)c2cc3cc(C)n(CC4CCSCC4)c3s2)cn1 [Compound 175, (6-methoxypyridin-3-yl)(5-methyl-6-((tetrahydro-2H-thiopyran-4-yl)methyl)-6H-thieno[2,3-b]pyrrol-2-yl)methanone]
EC50 [1]: 100 to 1000 nM
IC50 [6]: 1000 to 10000 nM
IC50 [2]: < 100 nM
EC50 [3]: < 100 nM
EC50 [4]: < 100 nM

COc1cc(F)c(C(=O)c2cc3cc(C)n(CC4CCOCC4)c3s2)c(F)c1 [Compound 180, (2,6-difluoro-4-methoxyphenyl)(5-methyl-6-((tetrahydro-2H-pyran-4-yl)methyl)-6H-thieno[2,3-b]pyrrol-2-yl)methanone]
EC50 [1]: 1000 to 10000 nM
IC50 [2]: 100 to 1000 nM
EC50 [3]: < 100 nM
EC50 [4]: < 100 nM

Cc1cc2cc(C(=O)c3cccc(Cl)c3Cl)sc2n1CCN1CCOCC1 [Compound I-1]
Number of Writhes ([7]; Dose 30, IP): 0.4 ± 0.31
Number of Writhes ([7]; Dose 30, PO): 7.5 ± 1.91

Cc1cc2cc(C(=O)c3ccc(Cl)cc3)sc2n1CCN1CCOCC1 [Compound I-6]
Number of Writhes ([7]; Dose 30, PO): 3.7 ± 0.7

Cc1cc2cc(C(=O)c3ccc(Cl)cc3Cl)sc2n1CCN1CCOCC1 [Compound I-10]
Number of Writhes ([7]; Dose 30, PO): 3.7 ± 0.7

Cc1cc2cc(C(=O)c3ccccn3)sc2n1CCN1CCOCC1 [Compound I-16]
Number of Writhes ([7]; Dose 30, IP): 10.0 ± 2.76

CCS(=O)(=O)n1c(C)cc2cc(C(=O)c3cccc(Cl)c3Cl)sc21 [Compound I-25]
Number of Writhes ([7]; Dose 30, IP): 5.9 ± 2.46

Cc1cc2cc(C(=O)c3ccncn3)sc2n1CCN1CCOCC1 [Compound I-34]
Number of Writhes ([7]; Dose 30, IP): 3.4 ± 0.97

COc1ccc(C(=O)c2cc3cc(C)n(CCN4CCOCC4)c3s2)cc1 [Compound I-36]
Post CFA PWT (grams) ([8]; 3 mg/kg PO): 114.3 ± 11.8 grams
Post CFA PWT (grams) ([8]; 10 mg/kg PO): 90.7 ± 10.4 grams
Post CFA PWT (grams) ([8]; 30 mg/kg PO): 157.3 ± 11.4 grams
Post CFA PWT (grams) ([8]; 56 mg/kg PO): 191 ± 12.1 grams
Number of Writhes ([7]; Dose 3, PO): 14.5 ± 1.59
Number of Writhes ([7]; Dose 10, PO): 12.1 ± 2.8
Number of Writhes ([7]; Dose 30, PO): 7.3 ± 2.5

Cc1cc2cc(C(=O)c3cccc(Cl)c3Cl)sc2n1CCCNS(C)(=O)=O [Compound I-37]
Number of Writhes ([7]; Dose 30, PO): 13.0 ± 1.65

Cc1cc2cc(C(=O)c3cccc(Cl)c3Cl)sc2n1S(=O)(=O)N(C)C [Compound I-41]
Number of Writhes ([7]; Dose 30, IP): 5.91 ± 2.04

CCS(=O)(=O)n1c(C)cc2cc(C(=O)c3cccnc3Cl)sc21 [Compound I-43]
Number of Writhes ([7]; Dose 30, PO): 13.8 ± 1.88

COc1ccc(C(=O)c2cc3cc(C)n(CCCNS(C)(=O)=O)c3s2)cc1 [Compound I-44]
Post CFA PWT (grams) ([8]; 10 mg/kg PO): 164.4 ± 8.4 grams
Post CFA PWT (grams) ([8]; 30 mg/kg PO): 153.7 ± 10.7 grams
Post CFA PWT (grams) ([8]; 56 mg/kg PO): 150 ± 13.8 grams
Number of Writhes ([7]; Dose 3, PO): 13.9 ± 1.4
Number of Writhes ([7]; Dose 10, PO): 9.4 ± 2.6
Number of Writhes ([7]; Dose 30, PO): 8.25 ± 2.54 and 9.7 ± 1.7

COc1ccc(C(=O)c2cc3cc(C)n(CCN4CCOCC4)c3s2)cn1 [Compound I-58]
Post CFA PWT (grams) ([8]; 60 mg/kg PO): 170.3 ± 19.7 grams
Number of Writhes ([7]; Dose 30, IP): 1.1 ± 0.38
Number of Writhes ([7]; Dose 30, PO): 15.9 ± 2.7

COc1ccc(C(=O)c2cc3cc(C)n(CCN4CCCCC4)c3s2)cc1 [Compound I-78]
Post CFA PWT (grams) ([8]; 60 mg/kg PO): 181.7 ± 22.3 grams

CCOc1ccc(C(=O)c2cc3cc(C)n(CCN4CCOCC4)c3s2)c(F)c1 [Compound I-89]
Post CFA PWT (grams) ([8]; 60 mg/kg PO): 178.7 ± 19.6 grams

CCOc1ccc(C(=O)c2cc3cc(C)n(CCCNS(C)(=O)=O)c3s2)c(F)c1 [Compound I-95]
Post CFA PWT (grams) ([8]; 60 mg/kg PO): 111.7 ± 20.5 grams

Cc1cc2cc(C(=O)c3ccc(OC(C)C)cc3)sc2n1CCN1CCOCC1 [Compound I-111]
Post CFA PWT (grams) ([8]; 60 mg/kg PO): 140.7 ± 13.7 grams

Cc1ccc(C(=O)c2cc3cc(C)n(CCN4CCOCC4)c3s2)cc1 [Compound I-124]
Post CFA PWT (grams) ([8]; 60 mg/kg PO): 196.7 ± 27.3 grams

COc1ccc(C(=O)c2cc3cc(C)n(CC4CCOCC4)c3s2)cn1 [Compound I-144]
Number of Writhes ([7]; Dose 3, PO): 5.04 ± 1.8
Number of Writhes ([7]; Dose 10, PO): 3.24 ± 1.08
Number of Writhes ([7]; Dose 30, PO): 1.8 ± 0.72

— patent publication US20130029970A1 (priority 2009, published 2013)
